Test results reported in ChEMBL document CHEMBL1127236, “Synthesis and biological activities of fluorine-substituted ()-indolactam-V, the core structure of tumor promoter teleocidins” (1994).

Columns and labels:
HeLa [1] = experiment: Compound was tested for stimulation of the incorporation of 32Pi into phospholipids of HeLa cells at 10E-6 M concentration; assay type: functional, Homo sapiens
Mus musculus = species on record: Mus musculus; experiment: In vitro binding affinity towards TPA receptor in mouse epidermal particulate fraction using [3H]TPA as radioligand
HeLa [2] = experiment: Compound was tested for stimulation of the incorporation of 32Pi into phospholipids of HeLa cells at 10E-5 M concentration; assay type: functional, Homo sapiens
HeLa [3] = experiment: Compound was tested for stimulation of the incorporation of 32Pi into phospholipids of HeLa cells at 10E-7 M concentration; assay type: functional, Homo sapiens
HeLa [4] = experiment: Compound was tested for stimulation of the incorporation of 32Pi into phospholipids of HeLa cells at 10E-4 M concentration; assay type: functional, Homo sapiens
HeLa [5] = experiment: Compound was tested for stimulation of the incorporation of 32Pi into phospholipids of HeLa cells at 10E-8 M concentration; assay type: functional, Homo sapiens

Which Relativity (HeLa [1]) does the source give for CC(C)[C@H]1C(=O)N[C@H](CO)Cc2c[nH]c3ccc(F)c(c23)N1C here?
Its Relativity is 1.28 c.p.m. mg-1.

And the pID50 (Mus musculus)?
Its pID50 is 4.41.

And the Relativity (HeLa [2])?
Its Relativity is 3.57 c.p.m. mg-1.

And the Relativity (HeLa [3])?
The Relativity was 1.29 c.p.m. mg-1.

What about the Relativity (HeLa [4]) of the same molecule?
The Relativity was 5.32 c.p.m. mg-1.

What does the source list for CC(C)[C@H]1C(=O)N[C@H](CO)Cc2c[nH]c3cc(F)cc(c23)N1C?
Relativity (HeLa [1]): 7.43 c.p.m. mg-1; pID50 (Mus musculus): 5.85; Relativity (HeLa [2]): 6.87 c.p.m. mg-1; Relativity (HeLa [5]): 1.18 c.p.m. mg-1; Relativity (HeLa [3]): 1.78 c.p.m. mg-1

Which Relativity (HeLa [1]) does the source give for CC(C)[C@H]1C(=O)N[C@H](CO)Cc2c[nH]c3cccc(c23)N1C [INDOLACTUM] here?
The Relativity was 4.69 c.p.m. mg-1.

What about the pID50 (Mus musculus) of the same molecule?
Its pID50 is 5.97.

What about the Relativity (HeLa [2]) of the same molecule?
The Relativity was 7.82 c.p.m. mg-1.

What about the Relativity (HeLa [5]) of the same molecule?
Its Relativity is 1.04 c.p.m. mg-1.

What about the Relativity (HeLa [3]) of the same molecule?
Its Relativity is 1.36 c.p.m. mg-1.
